In patent US10934303B2, “Aryl ethene derivative and pharmaceutical composition containing same as active ingredient” (priority 2016, dated 2021):
Like-named read-outs stand apart in the source and are kept apart here.

Columns and labels:
[1] = 1 μM, 30 minutes, 37° C., NADPH
[2] = 1 μM, 30 minutes, 37° C., NADPH; remark: listed apart in the source
Description: 2) Microsomal Stability Evaluation
(§2) Four liver microsomes (Human, Dog, Rat, Mouse 0.5 mg/ml) with a 0.1 M phosphate buffer solution (pH 7.4), and the arylethene derivative of the present invention were added to a concentration of 1 μM, culturing was performed at 37° C. for 5 minutes in advance, a NADPH regeneration system solution was added thereto, and culturing was performed at 37° C. for 30 minutes. Thereafter, in order to complete the reaction, an acetonitrile solution containing an internal standard material (chlorpropamide) was added thereto, centrifugation (14,000 rpm, 4° C.) was performed for 5 minutes, and a supernatant was injected into a LC-MS/MS system to analyze the substrate drug, thereby evaluating metabolism stability to the arylethene derivative of the present invention.

CYP3A4 = CYP3A4 (Homo sapiens (Human), UniProt P08684); assay: Cytochrome P450 activity inhibition, CYP3A4; assay type: in vitro ADME; conditions: 10 μM, human liver microsomes, Midazolam substrate
CYP3A4, sequence (P08684 whole entry): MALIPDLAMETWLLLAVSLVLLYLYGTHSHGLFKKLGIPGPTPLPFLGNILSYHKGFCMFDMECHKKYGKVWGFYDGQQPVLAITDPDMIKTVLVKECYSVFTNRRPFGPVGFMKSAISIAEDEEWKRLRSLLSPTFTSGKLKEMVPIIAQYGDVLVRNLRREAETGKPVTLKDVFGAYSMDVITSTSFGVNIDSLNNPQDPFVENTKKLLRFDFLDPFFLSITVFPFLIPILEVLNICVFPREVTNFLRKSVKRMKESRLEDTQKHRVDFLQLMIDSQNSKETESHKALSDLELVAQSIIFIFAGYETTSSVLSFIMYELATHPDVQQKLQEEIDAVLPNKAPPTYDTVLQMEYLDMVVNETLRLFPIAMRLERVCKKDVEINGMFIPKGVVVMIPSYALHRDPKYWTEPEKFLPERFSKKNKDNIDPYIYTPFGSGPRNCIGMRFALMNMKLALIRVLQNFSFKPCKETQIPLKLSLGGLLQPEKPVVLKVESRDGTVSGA
Description: (§1) 1) Cytochrome P450 (CYP450) Activity Inhibition Evaluation

[3] = 1 μM, 30 minutes, 37° C., NADPH; remark: listed apart in the source
Description: 2) Microsomal Stability Evaluation
as §2

[4] = 1 μM, 30 minutes, 37° C., NADPH; remark: listed apart in the source
Description: 2) Microsomal Stability Evaluation
as §2

CYP1A2 = CYP1A2 (Homo sapiens (Human), UniProt P05177); assay: Cytochrome P450 activity inhibition, CYP1A2; assay type: in vitro ADME; conditions: 10 μM, human liver microsomes, Phenacetin substrate
CYP1A2, sequence (P05177 whole entry): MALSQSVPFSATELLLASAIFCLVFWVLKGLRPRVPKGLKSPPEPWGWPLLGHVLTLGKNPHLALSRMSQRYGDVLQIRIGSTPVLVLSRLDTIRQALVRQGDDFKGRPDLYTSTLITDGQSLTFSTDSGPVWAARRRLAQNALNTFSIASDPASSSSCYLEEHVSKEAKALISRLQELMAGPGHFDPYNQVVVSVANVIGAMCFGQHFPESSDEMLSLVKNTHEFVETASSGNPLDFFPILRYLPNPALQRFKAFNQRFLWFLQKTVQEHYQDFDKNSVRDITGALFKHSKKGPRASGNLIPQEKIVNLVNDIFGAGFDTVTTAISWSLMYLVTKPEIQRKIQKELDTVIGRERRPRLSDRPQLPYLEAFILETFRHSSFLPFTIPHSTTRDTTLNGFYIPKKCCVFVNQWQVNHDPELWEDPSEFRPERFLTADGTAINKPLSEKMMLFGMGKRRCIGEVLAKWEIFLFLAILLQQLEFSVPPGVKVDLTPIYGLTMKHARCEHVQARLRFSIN
Description: as §1

CYP2C9 = CYP2C9 (Homo sapiens (Human), UniProt P11712); assay: Cytochrome P450 activity inhibition, CYP2C9; assay type: in vitro ADME; conditions: 10 μM, human liver microsomes, Diclofenac substrate
CYP2C9, sequence (P11712 whole entry): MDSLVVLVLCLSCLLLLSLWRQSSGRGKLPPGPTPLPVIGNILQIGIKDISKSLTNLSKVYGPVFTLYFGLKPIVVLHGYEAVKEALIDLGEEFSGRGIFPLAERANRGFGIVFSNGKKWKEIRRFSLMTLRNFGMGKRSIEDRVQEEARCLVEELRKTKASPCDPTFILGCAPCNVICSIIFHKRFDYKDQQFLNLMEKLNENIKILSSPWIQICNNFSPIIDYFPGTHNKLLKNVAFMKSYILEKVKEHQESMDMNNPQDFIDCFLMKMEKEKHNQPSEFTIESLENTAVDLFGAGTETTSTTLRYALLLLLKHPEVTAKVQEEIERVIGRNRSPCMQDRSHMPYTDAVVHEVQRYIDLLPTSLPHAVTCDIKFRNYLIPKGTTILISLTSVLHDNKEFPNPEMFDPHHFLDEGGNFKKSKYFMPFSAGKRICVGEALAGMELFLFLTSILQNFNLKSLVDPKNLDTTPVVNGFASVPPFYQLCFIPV
Description: as §1

CYP2D6 = CYP2D6 (Homo sapiens (Human), UniProt P10635); assay: Cytochrome P450 activity inhibition, CYP2D6; assay type: in vitro ADME; conditions: 10 μM, human liver microsomes, Dextromethorphan substrate
CYP2D6, sequence (P10635 whole entry): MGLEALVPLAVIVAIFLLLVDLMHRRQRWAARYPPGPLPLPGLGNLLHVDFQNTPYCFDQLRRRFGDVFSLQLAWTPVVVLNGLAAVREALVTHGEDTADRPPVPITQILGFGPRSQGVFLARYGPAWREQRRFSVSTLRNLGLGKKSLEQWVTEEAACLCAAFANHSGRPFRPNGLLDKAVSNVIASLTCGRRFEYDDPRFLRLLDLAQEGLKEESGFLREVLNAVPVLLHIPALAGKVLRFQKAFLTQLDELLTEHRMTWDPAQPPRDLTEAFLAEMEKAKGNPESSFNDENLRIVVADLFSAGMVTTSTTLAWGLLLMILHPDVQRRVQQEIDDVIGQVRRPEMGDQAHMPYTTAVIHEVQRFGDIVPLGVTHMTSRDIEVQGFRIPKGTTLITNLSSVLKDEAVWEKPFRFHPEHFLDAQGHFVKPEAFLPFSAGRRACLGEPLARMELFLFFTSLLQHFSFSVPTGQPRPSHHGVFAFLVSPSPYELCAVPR
Description: as §1

CYP2C19 = CYP2C19 (Homo sapiens (Human), UniProt P33261); assay: Cytochrome P450 activity inhibition, CYP2C19; assay type: in vitro ADME; conditions: 10 μM, human liver microsomes, S-mephenytoin substrate
CYP2C19, sequence (P33261 whole entry): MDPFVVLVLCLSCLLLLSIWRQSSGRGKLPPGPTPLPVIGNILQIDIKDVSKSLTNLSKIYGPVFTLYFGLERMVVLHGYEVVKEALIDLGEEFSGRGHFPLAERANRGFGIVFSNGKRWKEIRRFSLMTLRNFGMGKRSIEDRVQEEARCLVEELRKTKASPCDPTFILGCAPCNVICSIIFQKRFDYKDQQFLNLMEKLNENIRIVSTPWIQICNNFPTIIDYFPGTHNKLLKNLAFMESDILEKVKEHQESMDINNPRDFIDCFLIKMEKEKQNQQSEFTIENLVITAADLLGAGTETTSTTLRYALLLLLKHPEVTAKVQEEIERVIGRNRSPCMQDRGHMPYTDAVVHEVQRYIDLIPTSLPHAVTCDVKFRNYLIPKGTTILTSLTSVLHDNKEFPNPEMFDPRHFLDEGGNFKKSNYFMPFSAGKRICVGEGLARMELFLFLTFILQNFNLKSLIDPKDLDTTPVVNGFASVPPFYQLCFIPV
Description: as §1

in vitro = in vitro ADME; conditions: PBS pH 7.4, 25° C., 5 hours
in vivo = assay type: in vivo; conditions: rat; for Cmax: read-out: Cmax
ERRγ = assay type: cell-based
Description: AD293 was cultured in a 24-well plate for 24 hours, using a DMEM High glucose culture medium (Hyclone, USA) to which 0.5% FBS was added at a concentration of 9×10^4/well. The culture medium was replaced with a DMEM High glucose culture medium to which 10% FBS was added, treatment was performed with a mixture of a TransIT-LT1 transfection reagent (Mirus, USA) and pCMX-Gal4-ERRγ, pFR-luciferase reporter plasmid, pCMV-β-gal, and culturing was performed for 24 hours. Thereafter, a luciferase activity assay and a β-gal assay were performed, respectively, with a lysate obtained after treatment with the arylethene derivative of the present invention for 24 hours. All results were derived from three or more independent repetitive experiments.

| SMILES | MS(Microsomal Stability) (%) dog [1] | MS(Microsomal Stability) (%) mouse [2] | CYP inhibition (% of control) 3A4 (CYP3A4) | MS(Microsomal Stability) (%) human [3] | MS(Microsomal Stability) (%) rat [4] | CYP inhibition (% of control) 1A2 (CYP1A2) | CYP inhibition (% of control) 2C9 (CYP2C9) | CYP inhibition (% of control) 2D6 (CYP2D6) | CYP inhibition (% of control) 2C19 (CYP2C19) | Permeability Pampa (in vitro) | other results |
| --- | --- | --- | --- | --- | --- | --- | --- | --- | --- | --- | --- |
| CCN1CCC(c2ccc(C(=C(CCCO)c3ccccc3)c3cccc(O)c3)cc2)CC1 [Compound 22ae] | 33.7% | 21.5% | 81.5 % of control | 48.4% | 32.2% | 59.4 % of control | >100 % of control | 68.4 % of control | >100 % of control |  |  |
| CN1CCC(c2ccc(/C(=C(/CCCO)c3ccccc3)c3cccc(O)c3)cc2)CC1 [Compound 22ac] |  |  | 85 % of control |  |  | >100 % of control | >100 % of control | 86.2 % of control | >100 % of control |  |  |
| Cc1ccc(/C(=C(\CCCO)c2ccccc2)c2ccc(C3CCN(C)CC3)cc2)cc1 [Compound 22f] | 78.1% | 66.3% |  | 97.0% | 80.0% |  |  |  |  | 3.96 10^−6 cm/s |  |
| CC(C)N1CCC(c2ccc(/C(=C(/CCCO)c3ccccc3)c3cccc(O)c3)cc2)C1 (racemic) [Compound 22u] | 10.0% | 17.2% |  | 40.0% | 44.3% |  |  |  |  |  |  |
| CC(C)N1CCC(c2ccc(/C(=C(/CCCO)c3ccccc3)c3ccc(O)cc3)cc2)C1 (racemic) [Compound 22s] | 35.4% | 21.7% |  | 34.9% | 75.6% |  |  |  |  |  | AUCall (in vivo; IV, 1 mg/kg): 0.44 μMh; Vss (in vivo; IV, 1 mg/kg): 13.2 L/kg; t1/2 (in vivo; IV, 1 mg/kg): 2.2 h; AUCINF (in vivo; PO, 10 mg/kg): 0.11 μMh; AUCall (in vivo; PO, 10 mg/kg): 0.09 μMh; BA (in vivo; PO, 10 mg/kg): 18.5%; Tmax (in vivo; PO, 10 mg/kg): 1.3 h; Cmax (in vivo; PO, 10 mg/kg): 0.02 µM |
| OCCC/C(=C(\c1ccc(O)cc1)c1ccc(C2CCN(C3CC3)CC2)cc1)c1ccccc1 [Compound 22i] | 91.5% | 83.6% |  | 36.0% | 92.6% |  |  |  |  | 0.35 10^−6 cm/s | AUCINF (in vivo; IV, 1 mg/kg): 0.54 μMh; AUCall (in vivo; IV, 1 mg/kg): 0.49 μMh; Vss (in vivo; IV, 1 mg/kg): 11.7 L/kg; t1/2 (in vivo; IV, 1 mg/kg): 3.0 h; AUCINF (in vivo; PO, 10 mg/kg): 4.52 μMh; AUCall (in vivo; PO, 10 mg/kg): 2.24 μMh; BA (in vivo; PO, 10 mg/kg): 45.3%; Tmax (in vivo; PO, 10 mg/kg): 2.2 h; Cmax (in vivo; PO, 10 mg/kg): 0.38 µM |
| CC(C)N1CCN(c2ccc(/C(=C(/CCCO)c3ccccc3)c3ccc(N)cc3)cc2)CC1 [Compound 26b] | 40.6% | 14.3% | 60.9 % of control | 49.1% | 31.4% | 99.2 % of control | 92.5 % of control | 81.9 % of control | 98.7 % of control |  |  |
| Cc1ccc(/C(=C(\CCCO)c2ccccc2)c2ccc(C3CCNCC3)cc2)cc1 [Compound 20k] | 84.9% | 81.3% | 83.6 % of control | 93.6% | 89.0% | 79.3 % of control | 87.6 % of control | 96.2 % of control | 78.9 % of control |  |  |
| Cc1ccc(/C(=C(\CCCO)c2ccccc2)c2ccc(C3CN(C(C)C)C3)cc2)cc1 [Compound 22e] |  |  | 58.2 % of control |  |  | 94.9 % of control | 61.3 % of control | 71.8 % of control | 58.4 % of control | 6.16 10^−6 cm/s |  |
| CC(C)N1CCN(c2ccc(/C(=C(/CCCO)c3ccccc3)c3cccc(O)c3)cc2)CC1 [Compound 18k] | 61.2% | 26.9% |  | 65.4% | 54.9% |  |  |  |  | 1.29 10^−6 cm/s | Functional Assay at 10 μM (% of control), Cpds (ERRγ; 10 μM, 24 hours, AD293): 1.08 % of control; Functional Assay, Cpds/Ref 5182 (ERRγ; activity relative to reference compound GSK5182, 10 μM): 1.14 |
| CC(=O)Nc1ccc(/C(=C(\CCCOC(C)=O)c2ccccc2)c2ccc(C3CCN(C4CC4)CC3)cc2)cc1 [Compound 27d] | 43.8% | 17.6% |  | 63.7% | 67.6% |  |  |  |  | 0.34 10^−6 cm/s |  |
| OCCC/C(=C(\c1ccc(Br)cc1)c1ccc(N2CCNCC2)cc1)c1ccccc1 [Compound 20a, (E)-5-(4-bromophenyl)-4-phenyl-5-(4-(piperazin-1-yl)phenyl)pent-4-en-1-ol] |  |  | 55 % of control | 65.1% | 84.7% | 85 % of control | 76 % of control |  |  |  | Functional Assay at 10 μM (% of control), Cpds (ERRγ; 10 μM, 24 hours, AD293): 3.15 % of control |
| OCCC/C(=C(/c1ccc(C2=CCN(C3CC3)CC2)cc1)c1cccc(O)c1)c1ccccc1 [Compound 22l] | 67.9% | 25.8% | 80.7 % of control | 71.8% | 53.4% | 96.2 % of control | 88.3 % of control | 99 % of control | 97 % of control |  |  |
| CC(C)N1CCC(c2ccc(/C(=C(/CCCO)c3ccccc3)c3cccc(O)c3)cc2)CC1 [Compound 22h] | 22.4% | 16.2% | 72.2 % of control | 46.9% | 43.8% | >100 % of control | 97.9 % of control | 69.1 % of control | >100 % of control |  |  |
| CC(=O)Nc1ccc(/C(=C(\CCCO)c2ccccc2)c2ccc(C3CCN(C4CC4)CC3)cc2)cc1 [Compound 27c] | 81.2% | 42.1% |  | 83.5% | 79.4% |  |  |  |  | 0.68 10^−6 cm/s |  |
| Cl.Cl.OCCC/C(=C(\c1ccc(O)cc1)c1ccc(OCCN2CCNCC2)cc1)c1ccccc1 [Compound 7a, (Z)-4-(5-hydroxy-2-phenyl-1-(4-(2-(piperazin-1-yl)ethoxy)phenyl)pent-1-en-1-yl)phenol 2hydrochloride salt] | 64.7% | 32.1% |  | 49.0% | 59.5% |  |  |  |  |  | Functional Assay at 10 μM (% of control), Cpds (ERRγ): 2.71 % of control; Functional Assay, Cpds/Ref 5182 (ERRγ): 0.86 |
